Patent publication US20210169984A1, “SENSITIZING CANCER TO DEATH RECEPTOR AGONISTS WITH KINASE INHIBITORS” (The Johns Hopkins University, priority 2016, published 2021)
“Also recorded” adds a separate entry of the source.

Assays:
[1] = in vivo; cited from earlier work
cancer patients = conditions: cited from earlier work
HT29 (CRC) cells = assay: KI library screen for TRAIL sensitization (KI pretreatment, then TRAILPEG; MTT cell death assay); format: cell-based, human
Protocol: The screening is performed using an MTT cell death assay in CRC cells with different TRAIL sensitivities.

[2] = test system: HP LNCAP prostate adenocarcinoma cells; assay: KI library screen for TRAIL sensitization; format: cell-based, human
Excerpt: (§1) A library of KIs was screened for TRAIL sensitization in various TRAIL-resistant cancer cells, including: HT29 (CRC), MDA-MB-231 (breast), LNCAP (prostate), DU145 (prostate), PC3 (prostate) and A549 (lung). […] The 355 KIs comprised of compounds targeting diverse kinases, including multi kinases, RTK (receptor kinase tyrosine), PI3K (phosphinistide 3-kinase), aurora kinases, including […] (mitogen-activated protein kinase). […] The interaction between KIs and TRAIL had been previously explored in vitro with the tyrosine KI sorafenib, a drug similar to regorafenib. However, such studies were mostly performed on cellular levels and not in in vivo models, combined with systemically administered recombinant TRAIL. Although a similar structure, regorafenib was newly approved in 2012. The interactions between the three other selected KIs and TRAIL have not been previously reported, in vitro or in vivo.
(§2) Regorafenib potentiated TRAIL-induced apoptosis in prostate cancer cells (LNCAP, HPLNCAP (High Passages LNCAP), DU-145 and PC-3) when combined with TRAILPEG (1 μg/mL) (FIG. 5). After treating cells with regorafenib (5 μM), caspases and anti-apoptotic proteins were analyzed by western blotting (FIG. 6A-FIG. 6C). […] Data confirmed that FDA-approved KIs or KIs under clinical development synergized with long-acting TRAILPEG by overcoming TRAIL-resistance through unique TRAIL sensitization mechanisms.

[3] = test system: PC3 prostate adenocarcinoma cells; assay: KI library screen for TRAIL sensitization; format: cell-based, human
Protocol: FIG. 2B depicts a bar graph showing quantified cell death after analyzing synergized cell death induced by TRAILPEG (1 μg/mL for 3 hr) and kinase inhibitors (KIs) in HT29 (human colon tumor cell line) and PC3 (human prostate tumor cell line) cells individually pretreated with selected 355 KIs. Relative cell death rates were calculated by [KI+TRAILPEG]/[KI alone] after separate MTT assays. The arrows indicate KIs with >60% cell death; n=3.
as §1

HT-29 cells = assay: Quantified cell death after combinatorial treatment with regorafenib and TRAILPEG (FIG. 3A); format: cell-based, human; conditions: regorafenib combined with TRAILPEG 1 μg/mL
Protocol: FIG. 3A depicts a bar graph showing that regorafenib (an oral, multi-kinase inhibitor) enhanced TRAILPEG -induced apoptosis in colorectal cancer (CRC) cells. Quantified cell death after combinatorial treatment with regorafenib and TRAILPEG (1 μg/mL) in HT-29 cells is shown.
as §2, with “HT-29” for “prostate cancer”, “cells” for “cells (LNCAP, HPLNCAP (High Passages LNCAP), DU-145 and PC-3)”, “3A).” for “5).”, “(2” for “(5”, “3B).” for “6A-FIG. 6C).”

HT29 cells [4] = assay: Western blot of caspases and anti-apoptotic proteins, regorafenib alone or with TRAILPEG (FIG. 3B); format: cell-based, human
Protocol: FIG. 3B depicts a Western blot analysis of HT29 cells with regorafenib alone or in combination with TRAILPEG.
as §2, with “HT-29” for “prostate cancer”, “cells” for “cells (LNCAP, HPLNCAP (High Passages LNCAP), DU-145 and PC-3)”, “3A).” for “5).”, “(2” for “(5”, “3B).” for “6A-FIG. 6C).”

HT29 cells [5] = assay: qPCR of death receptors and decoy receptors (FIG. 4A); format: cell-based, human; conditions: regorafenib 2 μM
Protocol: FIG. 4A depicts a bar graph showing qPCR analysis of death receptors (DRs) and decoy receptors (DcRs) in HT29 cells treated with regorafenib for 24 hours or 48 hours as indicated; *P<0.05, **P<0.01, ***P<0.001 versus control.
(§3) HT29 cells were treated with regorafenib (2 μM) for 24 hour or 48 hour as indicated. mRNAs for TRAIL receptors were measured by quantitative RT-PCR (qPCR) (FIG. 4A). […] After treating HT29 cells with regorafenib as indicated, DR4/5 or anti-apoptotic proteins were analyzed by Western blot (FIG. 4B). […] Conversely, anti-apoptotic proteins MCL-1 and BCL-2 were absent in HT29 cells treated with regorafenib for 48 hours. It has been previously reported that TRAIL receptors could be induced by signaling including NF-κB, ER stress, and JNK-ROS.

HT29 cells [6] = assay: Western blot of DR4/5 and anti-apoptotic proteins (FIG. 4B); format: cell-based, human; conditions: regorafenib, 48 hours
Protocol: as §3

[7] = test system: prostate cancer cells (LNCAP, HPLNCAP, DU-145 and PC-3); assay: Quantified cell death after regorafenib and TRAILPEG in prostate cancer cells; format: cell-based, human; conditions: regorafenib 5 μM combined with TRAILPEG 1 μg/mL
Protocol: FIG. 7 is a bar graph showing that regorafenib enhanced TRAILPEG-induced apoptosis in prostate cancer cells. Quantified cell death after combinatorial treatment with regorafenib (5 μM) and TRAILPEG (1 μg/mL) in various prostate cancer cells is shown. *P<0.05, **P<0.01, ***P<0.001 versus control (regorafenib only).
as §2

[8] = test system: prostate cancer cells (LNCAP, DU145, PC-3); assay: Western blot of prostate cancer cells, regorafenib alone or with TRAILPEG (FIG. 6A-6C); format: cell-based, human
Protocol: (§4) FIG. 5 depicts a bar graph showing results of tumor volumes in mice bearing TRAIL-resistant HT29 tumors treated with three rounds of TRAILPEG (150 μg, i.v), oral regorafenib (10 mg/kg) or oral regorafenib with TRAILPEG within days (12-17) after tumor inoculation. Mice were sacrificed on day 27. […] FIG. 6A depicts a Western blot analysis of LNCAP prostate cancer cells with regorafenib alone or in combination with TRAILPEG.
FIG. 6B depicts a Western blot analysis of DU145 prostate cancer cells with regorafenib alone or in combination with TRAILPEG.
FIG. 6C depicts a Western blot analysis of PC-3 prostate cancer cells with regorafenib alone or in combination with TRAILPEG.
as §2

HT29 xenografts = assay: TRAIL-resistant HT29 tumor xenograft; format: in vivo; conditions: oral regorafenib 10 mg/kg days 12, 14, 16; TRAILPEG 150 μg i.v. days 13, 15, 17; sacrifice day 27
Protocol: as §4
The therapeutic combination of oral regorafenib and TRAILPEG in HT29 xenografts in comparison to regorafenib and TRAILPEG alone (FIG. 7) were investigated. HT29 xenografts were treated with oral regorafenib (10 mg/kg) or saline on the 12th, 14th, and 16th days of tumor inoculation. On the 13th, 15th, and 17th days, animals were given an i.v. dose of TRAILPEG (150 μg). Animals were sacrificed on day 27.

[9] = test system: TRAIL-resistant cancer cells (HT29, MDA-MB-231, LNCAP, DU145, PC3, A549); assay: Cell death after TRAIL / TRAILPEG alone in various cancer cells (FIG. 2A); format: cell-based, human; conditions: TRAIL 1 μg/mL for 24 hours
Protocol: Quantified cell death data after TRAIL (1 μg/mL) treatment for 24 hours in various cancer cell types are shown. Human tumor cell lines include: colon (HT-29, SW620, HCT116), prostate (PC3), breast (MDA-MD-231, MCF-7), lung (A549). HCT116 represents a TRAIL-sensitive colorectal tumor for comparison. HEK293T is a normal human kidney cell line.
as §1

[10] = mouse, in vivo; cited from earlier work
[11] = regorafenib 5 μM combined with TRAILPEG

Question: What does the source list for “dulanermin: recombinant TRAIL, native-type, short-acting”?
Answer: half-life [1]: 5 min; therapeutic benefit (cancer patients; cancer patients, monotherapy studies): failed to demonstrate a robust therapeutic benefit; anticancer activity (cancer patients; combined with chemotherapy, lung and colon cancer patients): did not reveal improved anticancer activity; tolerability (cancer patients; human, in vivo): broad tolerability

Question: For `CNC(=O)c1cc(Oc2ccc(NC(=O)Nc3ccc(Cl)c(C(F)(F)F)c3)c(F)c2)ccn1` [Regorafenib (BAY 73-4506), Regorafenib], which “efficacy when combined with TRAILPEG (relative cell death, KI+TRAILPEG / KI alone)” value (HT29 (CRC) cells; HT29 cells pretreated with KI for 24 hours before TRAILPEG) is on record?
Answer: synergistic efficacy

Question: What about the “KIs that sensitize cancer cells to TRAIL-based agents” value (from here on “KIs that sensitize cancer cells”) (HT29 (CRC) cells; HT-29 colorectal adenocarcinoma) of the same molecule?
Answer: Example KIs that sensitize cancer cells to TRAIL-based agents.

Question: And the “KIs that sensitize cancer cells” value [2]?
Answer: Example KIs that sensitize cancer cells to TRAIL-based agents.

Question: And the “KIs that sensitize cancer cells” value [3]?
Answer: Example KIs that sensitize cancer cells to TRAIL-based agents.

Question: What about the TRAIL-induced apoptosis (HT-29 cells; listed as Regorafenib) of the same molecule?
Answer: potentiated

Question: And the TRAIL-induced apoptosis (HT-29 cells; listed as regorafenib)?
Answer: enhanced

Question: What about the RIP-1 (HT29 cells [4]) of the same molecule?
Answer: dose-dependently downregulated

Question: And the “anti-apoptotic proteins c-FLIP, MCL-1, BCL-2, and BCL-XL” value (HT29 cells [4]; regorafenib 2 μM)?
Answer: downregulated

Question: And the “caspase-dependent TRAILPEG-induced apoptosis (PARP-1 cleavage, caspase activation)” value (HT29 cells [4]; regorafenib 2 μM)?
Answer: significantly sensitized

Question: And the “DR4 mRNA” value (HT29 cells [5]; 24 or 48 hour)?
Answer: significantly upregulate; also recorded: upregulated

Question: What about the “DRS mRNA” value (HT29 cells [5]; 24 or 48 hour) of the same molecule?
Answer: minimally induced

Question: And the DcR2 expression (HT29 cells [5]; 48 hour)?
Answer: down-regulating; also recorded: rarely detectable

Question: And the DR4 protein (HT29 cells [6]; listed as Regorafenib)?
Answer: highly expressed

Question: What about the DR4 protein (HT29 cells [6]; listed as regorafenib) of the same molecule?
Answer: up-regulation

Question: What about the “anti-apoptotic proteins MCL-1 and BCL-2” value (HT29 cells [6]; listed as regorafenib) of the same molecule?
Answer: absent; also recorded: down-regulated

Question: What about the TRAIL-induced apoptosis ([7]; listed as Regorafenib) of the same molecule?
Answer: potentiated

Question: And the TRAIL-induced apoptosis ([7]; listed as regorafenib)?
Answer: enhanced

Question: And the “anti-apoptotic protein MCL-1” value [8, 11]?
Answer: downregulated

Question: And the “caspase-dependent TRAILPEG-induced apoptosis (PARP-1 cleavage, caspase activation)” value [8, 11]?
Answer: significantly sensitized

Question: What about the “apoptosis by single agent” value ([8]; regorafenib or TRAILPEG alone) of the same molecule?
Answer: did not induce strong apoptosis

Question: What about the “tumor growth / tumor volume” value (HT29 xenografts) of the same molecule?
Answer: moderate tumor reduction

Question: For “TRAIL: Tumor necrosis factor (TNF)-related apoptosis-inducing ligand, member of the TNF family”, which “TRAIL-induced apoptosis (cell death) by TRAIL” value [9] is on record?
Answer: resistance to TRAIL-induced apoptosis

Question: What about the circulating half-life [10] of the same molecule?
Answer: 66 min
